These results are taken from patent US8148428B2 (priority 2006, dated 2012).

Each structure is given as a SMILES string. pEC50: −log10 of the molar value. Where two headings read alike, the source gives them in different places.

The test system of test [1] is Lassa GP-pseudotyped-virus. The experiment in a line: microbe, parasite or virus in culture. On the set-up: Activity against Lassa GP-pseudotyped-virus specificity: reference not given here. The class given is cell-based, Lassa fever virus.
In test [2] the test system is Lassa fever virus (Josiah strain). The test can be described thus: organism not typed. The note with it: for pEC50: read-out: Activity vs. LFV EC50. The class given is cell-based.
Test [3] has as its system Guanarito envelope pseudotyped virus. The test can be described thus: organism not typed. As to conditions: read-out: EC50, pseudotyped viral infection, Guanarito envelope. The class given is cell-based.
In test [4] the test system is Tacaribe envelope pseudotyped virus. The test can be described thus: organism not typed. The class given is cell-based. As to conditions: read-out: EC50, pseudotyped viral infection, Tacaribe envelope.
Setting [5] is: Human immunodeficiency virus 1, read-out: Activity against Lassa GP-pseudotyped-virus EC50.

The term pEC50 denotes the negative decadic logarithm of the EC50, by convention in mol/L. As to `COc1ccc(C(C)=NNC(=O)C2CC2c2ccccc2)cc1` (stereo in doubt) [Compound 600180, 2-Phenyl-cyclopropanecarboxylic acid [1-(4-methoxy-phenyl)-eth-(Z)-ylidene]-hydrazide], the “Activity against Lassa GP-pseudotyped-virus specificity” value in test [1] was greater than 4000. Besides, in test [1] (setting [5]), the pEC50 is greater than 8.52.

Regarding `C/C(=N\NC(=O)C1CC1c1ccccc1)c1ccc(N)cc1` (stereo not drawn) [Compound 408306, 2-Phenyl-cyclopropanecarboxylic acid [1-(4-amino-phenyl)-eth-(E)-ylidene]-hydrazide], in test [2], the “Activity vs. LFV T.I. (therapeutic index)” value is listed as greater than 100 and the pEC50 was 6.30. The “Activity against Lassa GP-pseudotyped-virus specificity” value in test [1] is greater than 2000. Further, the pEC50 in test [1] (setting [5]) is 7.70.

Consider `O=C(N/N=C/c1ccccc1)[C@H]1C[C@@H]1c1ccccc1` [Compound 600075, (1S,2S)-2-Phenyl-cyclopropanecarboxylic acid [1-phenyl-meth-(E)-ylidene]-hydrazide], for which the pEC50 in test [1] (setting [5]) was less than 4.52.

For `C/C(=N\NC(=O)C1CC1c1ccccc1)C1CC1` (stereo not drawn) [Compound 600086, 2-Phenyl-cyclopropanecarboxylic acid [1-cyclopropyl-eth-(E)-ylidene]-hydrazide], the “Activity against Lassa GP-pseudotyped-virus specificity” value in test [1] is greater than 2. The pEC50 in test [1] (setting [5]) is 5.00.

`O=C1Nc2ccccc2/C1=N\NC(=O)C1CC1c1ccccc1` (stereo not drawn) [Compound 600087, 2-Phenyl-cyclopropanecarboxylic acid [2-oxo-1,2-dihydro-indol-(3E)-ylidene]-hydrazide]: the “Activity against Lassa GP-pseudotyped-virus specificity” value in test [1] was greater than 700. Further, the pEC50 in test [1] (setting [5]) was 7.40.

Regarding `C/C(=N\NC(=O)CCc1ccccc1)c1cccc(N)c1` [Compound 600090, 3-Phenyl-propionic acid [1-(3-amino-phenyl)-eth-(E)-ylidene]-hydrazide], the “Activity against Lassa GP-pseudotyped-virus specificity” value in test [1] is greater than 18. Moreover, the pEC50 in test [1] (setting [5]) was 5.80.

Consider `CCOC(=O)C/C(C)=N/NC(=O)C1CC1c1ccccc1` (stereo not drawn) [Compound 600091, 3-[(2-Phenyl-cyclopropanecarbonyl)-hydrazono]-butyric acid ethyl ester], for which the “Activity against Lassa GP-pseudotyped-virus specificity” value in test [1] is on record as greater than 18. For the same compound, the pEC50 in test [1] (setting [5]) is 5.80.

As to `C/C(=N/NC(=O)C1CC1c1ccccc1)c1ccccc1Cl` (stereo not drawn) [Compound 600092, 2-Phenyl-cyclopropanecarboxylic acid [1-(2-chloro-phenyl)-eth-(Z)-ylidene]-hydrazide], in test [1], the “Activity against Lassa GP-pseudotyped-virus specificity” value amounted to 20. Also, the pEC50 in test [1] (setting [5]) is 6.70.

On to `C/C(=N/NC(=O)C1CC1c1ccccc1)c1cccs1` (stereo not drawn) [Compound 600093, 2-Phenyl-cyclopropartecarboxylic acid [1-thiophen-2-yl-eth-(Z)-ylidene]-hydrazide], for which the “Activity against Lassa GP-pseudotyped-virus specificity” value in test [1] worked out at 2. In addition, the pEC50 in test [1] (setting [5]) was 4.85.

With `C/C(=N/NC(=O)C1CC1c1ccccc1)c1ccc(NC(=O)C2CC2)cc1` (stereo not drawn) [Compound 600100, Cyclopropanecarboxylic acid (4-[1-[(2-phenyl-cyclopropanecarbonyl)-hydrazono]-ethyl]-phenyl)-amide], the negative logarithm of the EC50 (pEC50) was greater than 6.40 in test [2] and 8.70 in test [1] (setting [5]). Besides, in test [1], the “Activity against Lassa GP-pseudotyped-virus specificity” value is given as >20,000.

Regarding `COc1ccc(/C(C)=N/NC(=O)C2CC2c2ccccc2)c(OC)c1` (stereo not drawn) [Compound 600120, 2-Phenyl-cyclopropanecarboxylic acid [1-(2,4-dimethoxy-phenyl)-eth-(E)-ylidene]-hydrazide], the “Activity against Lassa GP-pseudotyped-virus specificity” value in test [1] is 180. Also, the pEC50 in test [1] (setting [5]) was 6.92.

As for `CC(C)/C(=N\NC(=O)C1CC1c1ccccc1)c1ccccc1` (stereo not drawn) [Compound 600123], in test [1], the “Activity against Lassa GP-pseudotyped-virus specificity” value is 60. In addition, the pEC50 in test [1] (read-out: Activity against Lassa GP-pseudotyped-virus EC50) is 6.70.

For `C/C(=N\NC(=O)C1CC1c1ccccc1)c1ccc(C)cc1` (stereo not drawn) [Compound 600124, 2-Phenyl-cyclopropanecarboxylic acid [1-p-tolyl-eth-(E)-ylidene]-hydrazide], in test [1], the “Activity against Lassa GP-pseudotyped-virus specificity” value was greater than 700. Besides, the pEC50 in test [1] (setting [5]) was greater than 7.52.

For `Cc1ccc2c(c1Br)C(=NNC(=O)C1CC1c1ccccc1)C(=O)N2` (stereo not drawn) [Compound 600140, 2-Phenyl-cyclopropanecarboxylic acid [4-bromo-5-methyl-2-oxo-1,2-dihydro-indol-(3E)-ylidene]-hydrazide], in test [1], the “Activity against Lassa GP-pseudotyped-virus specificity” value was greater than 30. The pEC50 in test [1] (setting [5]) is 6.52.

For `C/C(=N\NC(=O)C1CC1c1ccccc1)c1ccc(-c2ccccc2)cc1` (stereo not drawn) [Compound 600152, 2-Phenyl-cyclopropanecarboxylic acid [1-biphenyl-4-yl-eth-(E)-ylidene]-hydrazide], in test [1], the “Activity against Lassa GP-pseudotyped-virus specificity” value is greater than 8000. The pEC50 in test [1] (setting [5]) is 9.00.

Take `COc1ccc(/C(C)=N/NC(=O)C2CC2c2ccccc2)cc1OC` (stereo not drawn) [Compound 600154, 2-Phenyl-cyctopropanecarboxylic acid [1-(3,4-dimethoxy-phenyl)-eth-(E)-ylidene]-hydrazide]: the “Activity against Lassa GP-pseudotyped-virus specificity” value in test [1] is reported as greater than 50. Further, in test [1] (setting [5]), the pEC50 is 6.70.

As to `O=C1Nc2ccc([N+](=O)[O-])cc2/C1=N/NC(=O)C1CC1c1ccccc1` (stereo not drawn) [Compound 600155, 2-Phenyl-cyclopropanecarboxylic acid [5-nitro-2-oxo-1,2-dihydro-indol-(3Z)-ylidene]-hydrazide], in test [1], the “Activity against Lassa GP-pseudotyped-virus specificity” value is on record as greater than 40. The pEC50 in test [1] (setting [5]) is 6.52.

As to `C/C(=N/NC(=O)C1CC1c1ccccc1)c1ccc2c3c(cccc13)CC2` (stereo not drawn) [Compound 600156], in test [1], the “Activity against Lassa GP-pseudotyped-virus specificity” value was “none”. The pEC50 in test [1] (setting [5]) is 5.70.

Turning to `C/C(=N\NC(=O)C1CC1c1ccccc1)c1ccc(NC(=O)c2ccco2)cc1` (stereo not drawn) [Compound 600161, Furan-2-carboxylic acid (4-[1-[(2-phenyl-cyclopropanecarbonyl)-hydrazono]-ethyl]-phenyl)-amide], the pEC50 is 6.52 in test [3], greater than 7.70 in test [2], 9.30 in test [1] (setting [5]) and 6.10 in test [4]. In addition, the “Activity vs. LFV T.I. (therapeutic index)” value in test [2] is recorded as greater than 2000. The “Activity against Lassa GP-pseudotyped-virus specificity” value in test [1] is listed as >90,000.

Turning to `C/C(=N/NC(=O)C1CC1c1ccccc1)c1ccc(NC(=O)c2ccc(Cl)cc2Cl)cc1` (stereo not drawn) [Compound 600162, 2,4-Dichloro-N-(4-[1-[(2-Phenyl-cyclopropanecarbonyl)-hydrazono]ethyl]-phenyl)-benzamide], the “Activity against Lassa GP-pseudotyped-virus specificity” value in test [1] is greater than 4000. The pEC50 in test [1] (setting [5]) was greater than 8.52.

As for `C/C(=N\NC(=O)C1CC1c1ccccc1)c1ccccc1O` (stereo not drawn) [Compound 600176, 2-Phenyl-cyclopropanecarboxylic acid [1-(2-hydroxy-phenyl)-eth-(E)-ylidene]-hydrazide], the “Activity against Lassa GP-pseudotyped-virus specificity” value in test [1] was greater than 14. In addition, the pEC50 in test [1] (setting [5]) is 6.10.

As for `C/C(=N\NC(=O)C1CC1c1ccccc1)c1ccc(N(C)C)cc1` (stereo not drawn) [Compound 600178, 2-Phenyl-cyclopropanecarboxylic acid [1-(4-dimethylamino-phenyl)-eth-(E)-ylidene]-hydrazide], the “Activity against Lassa GP-pseudotyped-virus specificity” value in test [1] is greater than 4000. Also, in test [1] (setting [5]), the negative-log EC50 (pEC50) was greater than 8.52.

In the case of `C/C(=N\NC(=O)C1CC1c1ccccc1)c1ccc(C2CCCCC2)cc1` (stereo not drawn) [Compound 600181, 2-Phenyl-cyclopropanecarboxylic acid [1-(4-cyclohexyl-phenyl)-eth-(E)-ylidene]-hydrazide], the “Activity against Lassa GP-pseudotyped-virus specificity” value in test [1] is recorded as greater than 400. Moreover, in test [1] (setting [5]), the pEC50 was 7.70.

Regarding `C/C(=N/NC(=O)C1CC1c1ccc(C(C)(C)C)cc1)c1cccc(NC(=O)c2ccccc2F)c1` (stereo not drawn) [Compound 600182, N-[3-(1-[[2-(4-tert-Butyl-phenyl)-cyclopropanecarbonyl]-hydrazono]-ethyl)-phenyl]-2-fluoro-benzamide], in test [1], the “Activity against Lassa GP-pseudotyped-virus specificity” value is given as greater than 15. For the same compound, in test [1] (setting [5]), the pEC50 is 6.10.

Turning to `C/C(=N\NC(=O)C1CC1c1ccccc1)c1ccc(NC(=O)c2ccc(Cl)s2)cc1` (stereo not drawn) [Compound 600183, 5-Chloro-thiophene-2-carboxylic acid (4-[1-[(2-phenyl-cyclopropanecarbonyl)-hydrazono]-ethyl]-phenyl)-amide], in test [1], the “Activity against Lassa GP-pseudotyped-virus specificity” value is given as greater than 4000. For the same compound, the pEC50 in test [1] (setting [5]) was greater than 8.52.

Turning to `CC(=O)Nc1ccc(/C(C)=N/NC(=O)C2CC2c2ccccc2)cc1` (stereo not drawn) [Compound 600184, N-(4-[1-[(2-phenyl-cyclopropanecarbonyl)-hydrazono]-ethyl}-phenyl)-acetamide], the “Activity against Lassa GP-pseudotyped-virus specificity” value in test [1] is greater than 3000. In addition, the pEC50 in test [1] (setting [5]) is 8.52.

For the compound `C/C(=N\NC(=O)C1CC1c1ccccc1)c1cccc(NC(=O)c2ccccc2F)c1` (stereo not drawn) [Compound 600185], in test [1], the “Activity against Lassa GP-pseudotyped-virus specificity” value is reported as greater than 1.3. For the same compound, in test [1] (setting [5]), the negative logarithm of the EC50 (pEC50) is 5.05.

For `C/C(=N/NC(=O)C1CC1c1ccccc1)c1ccc(NC(=O)C(F)(F)F)cc1` (stereo not drawn) [Compound 600187, 2,2,2-Trifluoro-N-(4-[1-[(2-phenyl-cyclopropanecarbonyl)-hydrazono]-ethyl]-phenyl)-acetamide], the “Activity against Lassa GP-pseudotyped-virus specificity” value in test [1] is on record as greater than 4000. Further, the pEC50 in test [1] (setting [5]) was 8.52.

On to `C/C(=N/NC(=O)C1CC1c1ccc(C(C)(C)C)cc1)c1ccc(F)cc1` (stereo not drawn) [Compound 600197, 2-(4-tert-Butyl-phenyl)-cyclopropanecarboxylic acid [1-(4-fluoro-phenyl)-eth-(Z)-ylidene]-hydrazide], for which, in test [1], the “Activity against Lassa GP-pseudotyped-virus specificity” value turned out to be 650. The pEC50 in test [1] (setting [5]) was 7.70.

On to `COc1ccc(/C(C)=N\NC(=O)C2CC2c2ccc(C(C)(C)C)cc2)cc1[N+](=O)[O-]` (stereo not drawn) [Compound 600198, 2-(4-tert-Butyl-phenyl)-cyclopropanecarboxylic acid [1-(4-methoxy-3-nitro-phenyl)-eth-(Z)-ylidene]-hydrazide], for which, in test [1], the “Activity against Lassa GP-pseudotyped-virus specificity” value is on record as greater than 800. Also, the pEC50 in test [1] (setting [5]) was 7.85.
